In patent US6482438B1, “Apparatus and process for preparing crystalline particles” (SmithKline Beecham Corporation, priority 1998, dated 2002):

Tests used:
[1] = Malvern laser diffraction particle sizing (Mastersizer X) of crystalline fluticasone propionate particles; type: physicochemical
Experimental: A continuous flow reaction cell with 2 diametrically opposite inlets at the bottom and a run-out ca. half way up the side of the vessel is used in the experiment. The drug substance (fluticasone propionate, FP) is dissolved in acetone (15 vol, 0.133 M) at elevated temperature (50-56° C.) and then allowed to cool to ambient temperature (20° C.). A solution of FP is then pumped using a peristaltic pump into one of the bottom inlets of the reaction cell. Water was similarly pumped via the other inlet from a water reservoir using a second pump.
Re-crystallisations are carried out from various mixtures of acetone and water (by altering the flow rates of each) as dictated by the parameters set out in the experimental design. Efficient mixing of the two streams is ensured with the aid of a non-grinding magnetic stirrer bar.
(§1) Before carrying out any particular crystallisation, the cell is pre-charged with a mixture of acetone/water (the ratio of each being the same as the relative pumping rates from the two reservoirs). By doing this, the relative concentrations of the water to acetone remains constant throughout the crystallisation. The tip of the sono-probe is arranged so that it is just above the inlet for the FP solution. When the magnetic stirrer, sono-probe and pumps are turned on, rapid onset of crystallisation takes place. A suspension of the crystallisation mixture exits via the overflow directly on to a filter funnel thus minimising the opportunity for further crystal growth.
(§2) Using the above set-up, the experiments set out in the experimental design shown below were carried out and the samples of damp solid harvested and dried in vacuo at ambient temperature. All the samples were sized using the Malvern laser diffraction particle sizer and the results analysed using multi-dimensional model fitting software (such as Design Expert 5).
Ultrasound Power is given as a percentage of maximum (50 W). Ultrasound frequency was 22 kHz.
(§3) Samples were analysed using Malvern laser diffraction particle sizing.
Instrument: Malvern Mastersizer X
Lens: 45 mm Reverse Fourier
Analysis: 0607 presentation code
(§4) Dispersant: Iso Octane / Lecithin 0.05% w/w
Pre dispersion: Sonicate for 10 seconds
One analysis per sample was carried out. The median particle size (D50), particle size at 90% undersize (D90) and particle size at 10% undersize (D10) were used as responses to characterise the medium, course, and fine particles. In addition a fourth response, uniformity index (Ul) was calculated as a measure of the breadth of the distribution.
Uniformity Index (Ul) is calculated as 100×D10/D90.

[2] = Malvern laser diffraction particle sizing (Mastersizer S) of crystalline salmeterol xinafoate particles; type: physicochemical; conditions: methanol solution 7 ml/min
Experimental: A continuous flow reaction cell with 2 diametrically opposite inlets at the bottom and a run-out ca. half way up the side of the vessel is used in the experiment. […] The drug substance (salmeterol xinafoate) is dissolved in methanol (6 vol) at elevated temperature
(65° C.). A solution of salmeterol xinafoate (0.276 M) is then pumped (a fixed rate of 7 ml/min) using a peristaltic pump into one of the bottom inlets of the reaction cell. Cold water was similarly pumped via the other inlet from a water reservoir using a second pump at rates as dictated by the experimental design.
Re-crystallisations are carried out from various mixtures of methanol and water as dictated by the parameters set out in the experimental design. Efficient mixing of the two streams is ensured with the aid of a non-grinding magnetic stirrer bar. The stirrer speed is maintained constant at all times. The stir speed is set at such a rate so as to induce a minimum amount of vortex.
as §1, with “methanol/water” for “acetone/water”, “methanol” for “acetone”, “salmeterol” for “FP”
as §2
Ultrasound Power is given as a percentage of maximum (600 W). Ultrasound frequency was 22 kHz.
as §3
Instrument: Malvern Mastersizer S
Lens: 300 mm Reverse Fourier
Analysis: presentation code 30 GE
as §4
Pre dispersion: Sonicate for 1 Minute
One analysis per sample was carried out. The median particle size (D50), particle size at 90% undersize (D90) and particle size at 10 % undersize (D10) were used as responses to characterise the medium, course, and fine particles. In addition a fourth response, uniformity index (Ul) was calculated as a measure of the breadth of the distribution.
Uniformity Index (Ul) is calculated as 100×D 10/D90.

[3] = Run 1: water 24 ml/min, acetone solution 3.50 ml/min, stirring 40.00 %, ultrasound 0.00 % of 50 W
[4] = Run 2: water 18 ml/min, acetone solution 5.25 ml/min, stirring 20.00 %, ultrasound 20.00 % of 50 W
[5] = Run 3: water 24 ml/min, acetone solution 3.50 ml/min, stirring 0.00 %, ultrasound 40.00 % of 50 W
[6] = Run 4: water 12 ml/min, acetone solution 7.00 ml/min, stirring 0.00 %, ultrasound 40.00 % of 50 W
[7] = Run 5: water 24 ml/min, acetone solution 7.00 ml/min, stirring 40.00 %, ultrasound 40.00 % of 50 W
[8] = Run 6: water 18 ml/min, acetone solution 5.25 ml/min, stirring 20.00 %, ultrasound 20.00 % of 50 W
[9] = Run 7: water 12 ml/min, acetone solution 3.50 ml/min, stirring 0.00 %, ultrasound 0.00 % of 50 W
[10] = Run 8: water 12 ml/min, acetone solution 7.00 ml/min, stirring 40.00 %, ultrasound 0.00 % of 50 W
[11] = Run 9: water 12 ml/min, acetone solution 3.50 ml/min, stirring 40.00 %, ultrasound 40.00 % of 50 W
[12] = Run 10: water 24 ml/min, acetone solution 7.00 ml/min, stirring 0.00 %, ultrasound 0.00 % of 50 W
[13] = Run 1: water 14 ml/min, ultrasound 10.00 % of 600 W
[14] = Run 2: water 56 ml/min, ultrasound 10.00 % of 600 W
[15] = Run 3: water 56 ml/min, ultrasound 90.00 % of 600 W
[16] = Run 4: water 56 ml/min, ultrasound 90.00 % of 600 W
[17] = Run 5: water 56 ml/min, ultrasound 10.00 % of 600 W
[18] = Run 6: water 14 ml/min, ultrasound 10.00 % of 600 W
[19] = Run 7: water 35 ml/min, ultrasound 50.00 % of 600 W
[20] = Run 8: water 14 ml/min, ultrasound 90.00 % of 600 W
[21] = Run 9: water 35 ml/min, ultrasound 50.00 % of 600 W
[22] = Run 10: water 14 ml/min, ultrasound 90.00 % of 600 W

CCC(=O)O[C@]1(C(=O)SCF)[C@H](C)C[C@H]2[C@@H]3C[C@H](F)C4=CC(=O)C=C[C@]4(C)[C@@]3(F)[C@@H](O)C[C@@]21C [fluticasone propionate]
D10 particle size at 10% undersize [1, 3]: 1.07 μm
D50 median particle size [1, 3]: 4.95 μm
D90 particle size at 90% undersize [1, 3]: 18.91 μm
UI uniformity index (100×D10/D90) [1, 3]: 5.7%
D10 particle size at 10% undersize [1, 4]: 1.02 μm
D50 median particle size [1, 4]: 4.56 μm
D90 particle size at 90% undersize [1, 4]: 14.29 μm
UI uniformity index (100×D10/D90) [1, 4]: 7.1%
D10 particle size at 10% undersize [1, 5]: 1 μm
D50 median particle size [1, 5]: 4.2 μm
D90 particle size at 90% undersize [1, 5]: 18.3 μm
UI uniformity index (100×D10/D90) [1, 5]: 5.3%
D10 particle size at 10% undersize [1, 6]: 2.62 μm
D50 median particle size [1, 6]: 7.52 μm
D90 particle size at 90% undersize [1, 6]: 20.83 μm
UI uniformity index (100×D10/D90) [1, 6]: 12.6%
D10 particle size at 10% undersize [1, 7]: 1.05 μm
D50 median particle size [1, 7]: 4.3 μm
D90 particle size at 90% undersize [1, 7]: 14.66 μm
UI uniformity index (100×D10/D90) [1, 7]: 7.2%
D10 particle size at 10% undersize [1, 8]: 0.89 μm
D50 median particle size [1, 8]: 5.28 μm
D90 particle size at 90% undersize [1, 8]: 17.16 μm
UI uniformity index (100×D10/D90) [1, 8]: 5.1%
D10 particle size at 10% undersize [1, 9]: 2.32 μm
D50 median particle size [1, 9]: 9.34 μm
D90 particle size at 90% undersize [1, 9]: 28.97 μm
UI uniformity index (100×D10/D90) [1, 9]: 8%
D10 particle size at 10% undersize [1, 10]: 1.06 μm
D50 median particle size [1, 10]: 3.46 μm
D90 particle size at 90% undersize [1, 10]: 9.33 μm
UI uniformity index (100×D10/D90) [1, 10]: 11.4%
D10 particle size at 10% undersize [1, 11]: 0.97 μm
D50 median particle size [1, 11]: 3.67 μm
D90 particle size at 90% undersize [1, 11]: 11.47 μm
UI uniformity index (100×D10/D90) [1, 11]: 8.5%
D10 particle size at 10% undersize [1, 12]: 1.48 μm
D50 median particle size [1, 12]: 9.79 μm
D90 particle size at 90% undersize [1, 12]: 37.62 μm
UI uniformity index (100×D10/D90) [1, 12]: 3.9%

OCc1cc(C(O)CNCCCCCCOCCCCc2ccccc2)ccc1O (centres unmarked) [salmeterol xinafoate]
D10 particle size at 10% undersize [2, 13]: 1.6 μm
D50 median particle size [2, 13]: 10.1 μm
D90 particle size at 90% undersize [2, 13]: 24.78 μm
UI uniformity index (100×D10/D90) [2, 13]: 6.46%
D10 particle size at 10% undersize [2, 14]: 0.48 μm
D50 median particle size [2, 14]: 3.9 μm
D90 particle size at 90% undersize [2, 14]: 10.21 μm
UI uniformity index (100×D10/D90) [2, 14]: 4.70%
D10 particle size at 10% undersize [2, 15]: 0.64 μm
D50 median particle size [2, 15]: 4.24 μm
D90 particle size at 90% undersize [2, 15]: 14.45 μm
UI uniformity index (100×D10/D90) [2, 15]: 4.42%
D10 particle size at 10% undersize [2, 16]: 0.53 μm
D50 median particle size [2, 16]: 4.29 μm
D90 particle size at 90% undersize [2, 16]: 17.62 μm
UI uniformity index (100×D10/D90) [2, 16]: 3.01%
D10 particle size at 10% undersize [2, 17]: 0.39 μm
D50 median particle size [2, 17]: 4.74 μm
D90 particle size at 90% undersize [2, 17]: 16.8 μm
UI uniformity index (100×D10/D90) [2, 17]: 2.32%
D10 particle size at 10% undersize [2, 18]: 2.17 μm
D50 median particle size [2, 18]: 11.09 μm
D90 particle size at 90% undersize [2, 18]: 23.37 μm
UI uniformity index (100×D10/D90) [2, 18]: 9.28%
D10 particle size at 10% undersize [2, 19]: 1.08 μm
D50 median particle size [2, 19]: 4.75 μm
D90 particle size at 90% undersize [2, 19]: 13.45 μm
UI uniformity index (100×D10/D90) [2, 19]: 8.03%
D10 particle size at 10% undersize [2, 20]: 1.63 μm
D50 median particle size [2, 20]: 6.37 μm
D90 particle size at 90% undersize [2, 20]: 20.37 μm
UI uniformity index (100×D10/D90) [2, 20]: 8.00%
D10 particle size at 10% undersize [2, 21]: 1.88 μm
D50 median particle size [2, 21]: 4.99 μm
D90 particle size at 90% undersize [2, 21]: 11.76 μm
UI uniformity index (100×D10/D90) [2, 21]: 15.99%
D10 particle size at 10% undersize [2, 22]: 1.77 μm
D50 median particle size [2, 22]: 7.86 μm
D90 particle size at 90% undersize [2, 22]: 24.96 μm
UI uniformity index (100×D10/D90) [2, 22]: 7.09%
